ChEMBL document CHEMBL3046900, “Synthesis and Fungitoxic Activity of N-Cinnamoyl--Amino Acid Esters” (2000)

Legend:
Format in all cases: functional
Athelia rolfsii [1] = assay: Fungitoxic activity against Athelia rolfsii assessed as mycelial growth inhibition at 100 ppm after 3 days; conditions: Agroathelia rolfsii, 72 h; read-out: GI
Pythium [2] = assay: Fungitoxic activity against Pythium sp. assessed as mycelial growth inhibition at 100 ppm after 3 days; conditions: 72 h, read-out: GI
Athelia rolfsii [3] = assay: Fungitoxic activity against Athelia rolfsii assessed as mycelial growth inhibition at 10 ppm after 3 days; conditions: Agroathelia rolfsii, 72 h; read-out: GI
Pythium [4] = assay: Fungitoxic activity against Pythium sp. assessed as mycelial growth inhibition at 10 ppm after 3 days; conditions: 72 h, read-out: GI

SMILES | inhibition of growth at 100 ppm (Athelia rolfsii [1]) | inhibition of growth at 100 ppm (Pythium [2]) | inhibition of growth at 10 ppm (Athelia rolfsii [3]) | inhibition of growth at 10 ppm (Pythium [4])
CCOC(=O)[C@H](C)NC(=O)/C=C/c1ccc(Cl)cc1 | 47% | 27% |  | 
CC[C@H](C)[C@H](NC(=O)/C=C/c1ccccc1)C(=O)OC | 33% | 39% |  | 
CCOC(=O)[C@@H](NC(=O)/C=C/c1ccccc1)[C@@H](C)CC | 30% | 49% |  | 
COC(=O)[C@H](Cc1ccccc1)NC(=O)/C=C/c1ccccc1 | 49% | 37% |  | 
CCOC(=O)[C@H](Cc1ccccc1)NC(=O)/C=C/c1ccccc1 | 62% | 26% | 27% | 
COC(=O)[C@H](C)NC(=O)/C=C/c1ccc(C(C)C)cc1 | 67% | 52% |  | 
CCOC(=O)[C@H](C)NC(=O)/C=C/c1ccc(C(C)C)cc1 | 60% | 63% | 27% | 0%
CCCOC(=O)[C@H](C)NC(=O)/C=C/c1ccc(C(C)C)cc1 | 53% | 52% | 20% | 4%
CCCOC(=O)CNC(=O)/C=C/c1ccc(C(C)C)cc1 | 74% | 63% | 23% | 24%
CC(C)OC(=O)CNC(=O)/C=C/c1ccc(C(C)C)cc1 | 79% | 70% | 37% | 11%
COC(=O)[C@@H](NC(=O)/C=C/c1ccc(C(C)C)cc1)C(C)C | 63% | 74% | 23% | 14%
CCOC(=O)[C@@H](NC(=O)/C=C/c1ccc(C(C)C)cc1)C(C)C | 51% | 67% | 27% | 10%
COC(=O)[C@H](CC(C)C)NC(=O)/C=C/c1ccc(C(C)C)cc1 | 35% | 60% |  | 6%
CCOC(=O)[C@H](CC(C)C)NC(=O)/C=C/c1ccc(C(C)C)cc1 | 43% | 44% |  | 
CCCOC(=O)[C@H](CC(C)C)NC(=O)/C=C/c1ccc(C(C)C)cc1 | 46% | 43% |  | 
CC(C)C[C@H](NC(=O)/C=C/c1ccc(C(C)C)cc1)C(=O)OC(C)C | 56% | 53% | 35% | 25%
CC[C@H](C)[C@H](NC(=O)/C=C/c1ccc(C(C)C)cc1)C(=O)OC | 55% | 65% | 41% | 26%
CCOC(=O)[C@@H](NC(=O)/C=C/c1ccc(Cl)cc1Cl)C(C)C | 47% | 68% |  | 19%
COC(=O)[C@H](CC(C)C)NC(=O)/C=C/c1ccc(Cl)cc1Cl | 42% | 55% |  | 12%
CCOC(=O)[C@H](CC(C)C)NC(=O)/C=C/c1ccc(Cl)cc1Cl | 34% | 30% |  | 

SMILES | inhibition of growth at 100 ppm (Athelia rolfsii [1]) | inhibition of growth at 100 ppm (Pythium [2]) | inhibition of growth at 10 ppm (Athelia rolfsii [3]) | inhibition of growth at 10 ppm (Pythium [4])
CCCOC(=O)[C@H](CC(C)C)NC(=O)/C=C/c1ccc(Cl)cc1Cl | 33% | 38% |  | 
CC(C)C[C@H](NC(=O)/C=C/c1ccc(Cl)cc1Cl)C(=O)OC(C)C | 39% | 42% |  | 
CC[C@H](C)[C@H](NC(=O)/C=C/c1ccc(Cl)cc1Cl)C(=O)OC | 48% | 59% |  | 18%
CCOC(=O)[C@@H](NC(=O)/C=C/c1ccc(Cl)cc1Cl)[C@@H](C)CC | 47% | 52% |  | 20%
COC(=O)[C@H](Cc1ccccc1)NC(=O)/C=C/c1ccc(Cl)cc1Cl | 46% | 38% |  | 
CCOC(=O)[C@H](Cc1ccccc1)NC(=O)/C=C/c1ccc(Cl)cc1Cl | 35% | 18% |  | 
CCOC(=O)[C@@H](NC(=O)/C=C/c1ccc(C(C)C)cc1)[C@@H](C)CC | 45% | 57% |  | 23%
COC(=O)[C@H](Cc1ccccc1)NC(=O)/C=C/c1ccc(C(C)C)cc1 | 52% | 57% | 28% | 8%
CCOC(=O)[C@H](Cc1ccccc1)NC(=O)/C=C/c1ccc(C(C)C)cc1 | 18% | 20% |  | 
COC(=O)[C@H](C)NC(=O)/C=C/c1ccc(Cl)cc1 | 44% | 26% |  | 
CCCOC(=O)[C@H](C)NC(=O)/C=C/c1ccc(Cl)cc1 | 38% | 21% |  | 
CCCOC(=O)CNC(=O)/C=C/c1ccc(Cl)cc1 | 56% | 48% | 35% | 
CC(C)OC(=O)CNC(=O)/C=C/c1ccc(Cl)cc1 | 50% | 57% | 41% | 0%
COC(=O)[C@@H](NC(=O)/C=C/c1ccc(Cl)cc1)C(C)C | 53% | 52% | 20% | 0%
CCOC(=O)[C@@H](NC(=O)/C=C/c1ccc(Cl)cc1)C(C)C | 47% | 54% |  | 
COC(=O)[C@H](CC(C)C)NC(=O)/C=C/c1ccc(Cl)cc1 | 50% | 32% |  | 
CCOC(=O)[C@H](CC(C)C)NC(=O)/C=C/c1ccc(Cl)cc1 | 53% | 22% | 16% | 
CCCOC(=O)[C@H](CC(C)C)NC(=O)/C=C/c1ccc(Cl)cc1 | 56% | 38% | 25% | 
CC(C)C[C@H](NC(=O)/C=C/c1ccc(Cl)cc1)C(=O)OC(C)C | 89% | 70% | 32% | 7%
CC[C@H](C)[C@H](NC(=O)/C=C/c1ccc(Cl)cc1)C(=O)OC | 65% | 51% | 20% | 0%

SMILES | inhibition of growth at 100 ppm (Athelia rolfsii [1]) | inhibition of growth at 100 ppm (Pythium [2]) | inhibition of growth at 10 ppm (Athelia rolfsii [3]) | inhibition of growth at 10 ppm (Pythium [4])
CCOC(=O)[C@@H](NC(=O)/C=C/c1ccc(Cl)cc1)[C@@H](C)CC | 50% | 58% | 42% | 0%
COC(=O)[C@H](Cc1ccccc1)NC(=O)/C=C/c1ccc(Cl)cc1 | 47% | 13% |  | 
CCOC(=O)[C@H](Cc1ccccc1)NC(=O)/C=C/c1ccc(Cl)cc1 | 22% | 15% |  | 
COC(=O)[C@H](C)NC(=O)/C=C/c1ccc(Cl)cc1Cl | 49% | 55% |  | 
CCOC(=O)[C@H](C)NC(=O)/C=C/c1ccc(Cl)cc1Cl | 52% | 55% | 12% | 0%
CCCOC(=O)[C@H](C)NC(=O)/C=C/c1ccc(Cl)cc1Cl | 51% | 61% | 14% | 0%
CCCOC(=O)CNC(=O)/C=C/c1ccc(Cl)cc1Cl | 28% | 40% |  | 
CC(C)OC(=O)CNC(=O)/C=C/c1ccc(Cl)cc1Cl | 94% | 70% | 38% | 9%
COC(=O)[C@@H](NC(=O)/C=C/c1ccc(Cl)cc1Cl)C(C)C | 63% | 67% | 24% | 10%
COC(=O)[C@H](C)NC(=O)/C=C/c1ccccc1 | 25% | 13% |  | 
CCOC(=O)[C@H](C)NC(=O)/C=C/c1ccccc1 | 14% | 21% |  | 
CCCOC(=O)[C@H](C)NC(=O)/C=C/c1ccccc1 | 48% | 33% |  | 
COC(=O)[C@@H](NC(=O)/C=C/c1ccccc1)C(C)C | 29% | 33% |  | 
CCOC(=O)[C@@H](NC(=O)/C=C/c1ccccc1)C(C)C | 41% | 41% |  | 
COC(=O)[C@H](CC(C)C)NC(=O)/C=C/c1ccccc1 | 30% | 23% |  | 
CCOC(=O)[C@H](CC(C)C)NC(=O)/C=C/c1ccccc1 | 40% | 16% |  | 
CCCOC(=O)[C@H](CC(C)C)NC(=O)/C=C/c1ccccc1 | 45% | 31% |  | 
CC(C)C[C@H](NC(=O)/C=C/c1ccccc1)C(=O)OC(C)C | 41% | 34% |  | 
CC(C)OC(=O)CNC(=O)/C=C/c1ccccc1 [ISOPROPYL 2-CINNAMAMIDOACETATE] | 61% | 42% | 15% | 
CCCOC(=O)CNC(=O)/C=C/c1ccccc1 [PROPYL 2-CINNAMAMIDOACETATE] | 53% | 47% | 26% | 
